Publication PMC9787607, “A Novel Protocol for the Synthesis of 1,2,4-Oxadiazoles Active against Trypanosomatids and Drug-Resistant Leukemia Cell Lines” (Tropical Medicine and Infectious Disease, 2022)
Where a name gives a salt, the structure may show the parent alone.

Tests used:
[1] = tested on: HL-60/VCR; design: method as in PMID 20411988; settings: drug-resistant promyelocytic leukemia; cited from earlier work
[2] = tested on: HL-60; design: method as in PMID 20411988; settings: sensitive promyelocytic leukemia; cited from earlier work
[3] = tested on: Leishmania amazonensis; design: method as in PMID 19962891; settings: cited from earlier work
[4] = tested on: T. cruzi amastigotes; design: method as in PMID 22727447; settings: cited from earlier work
[5] = tested on: A375; design: method as in doi:10.1134/S1070363218050304; settings: cited from earlier work
[6] = tested on: MCF-7; design: method as in doi:10.1134/S1070363218050304; settings: cited from earlier work
[7] = tested on: ACHN; design: method as in doi:10.1134/S1070363218050304; settings: cited from earlier work
[8] = tested on: Leishmania donovani; design: method as in PMID 22217867; settings: cited from earlier work
[9] = tested on: T. cruzi; design: method as in PMID 22217867; settings: cited from earlier work
[10] = tested on: Trypanosoma brucei rhodesiense; design: method as in PMID 22217867; settings: cited from earlier work
[11] = tested on: Vero; design: method as in PMID 15142541; settings: cited from earlier work
[12] = tested on: L. donovani; design: method as in PMID 15142541; settings: cited from earlier work
[13] = tested on: T. brucei; design: method as in PMID 15142541; settings: cited from earlier work
[14] = tested on: PC3; design: method as in PMID 15142541; settings: cited from earlier work
[15] = tested on: FEPS (K562/DNR); assay: MTT cytotoxicity to MDR CML cell line FEPS; type: cell-based, human; settings: reference drugs, FEPS/K562, ratio of EC50 values from ref 64
Description: (§1) The CML cell lines K562, Lucena-1 (K562/VCR), and FEPS (K562/DNR) were cultured in RPMI-1640 medium supplemented with 25 mM HEPES and 2 g L^−1 sodium bicarbonate adjusted to pH 7.4 with NaOH, 100 U penicillin and […] streptomycin. All media were supplemented with 10% FBS. Dr. Vivian M. Rumjanek (Instituto de Bioquímica Médica, UFRJ, Brazil) kindly donated Lucena-1 and FEPS cells. Briefly, K562 cells were exposed to increasing concentrations of the chemotherapeutic drugs vincristine sulfate (VCR) and daunorubicin hydrochloride (DNR) (both from Sigma-Aldrich), as described previously. Lucena-1 (K562/VCR) and FEPS (K562/DNR) cells were cultured in the presence of either 60 nM VCR or 500 nM DNR to maintain the MDR phenotypes. For subcultures, cells were harvested every three days followed by washing with cold FBS, and a final concentration of 2 × 10^4 cells mL^−1 was maintained at 37 °C in 5% CO2.
(§2) Cell viability was determined by the 3-(4,5-dimethylthiazol-2-yl)-2,5-diphenyltetrazolium (MTT) colorimetric assay. CML cells (2 × 10^4 cells·mL^−1) were incubated for 72 h at 37 °C, followed by treatment with compounds at a range of concentrations (100–1 μM). Negative controls were prepared with 0.5% DMSO. An MTT salt solution was added to each well to a final concentration of 0.5 g·L^−1, and plates were incubated at 37 °C in 5% CO2 for 3 h. After centrifugation, 200 μL DMSO was added to dissolve the dark-blue formazan crystals formed by MTT reduction. Absorbance was measured on a microplate reader at 570 nm, which is directly proportional to formazan contents and indicative of living cells.
(§3) The percent cell or parasite viability was calculated by the formula: % viability = [(A − P)/(N − P)] × 100, A = absorbance of specific well, P = positive control, N = negative control. Determination of half-maximal effective concentrations (EC50), calculated by logarithmic regression, and significance analysis (p < 0.05), using ANOVA and Dunnett’s test, by GraphPad Prism 7.0 software. The results are expressed as the mean and standard deviation (SD) of three independent experiments.

[16] = tested on: Lucena-1 (K562/VCR); assay: cells; type: cell-based, human; settings: reference drugs, Lucena-1/K562, ratio of EC50 values from ref 64
Description: as §1, §2, §3

[17] = tested on: Lucena-1 (K562/VCR); design: method as in PMID 32229586; settings: reference drugs; cited from earlier work
[18] = tested on: K562; design: method as in PMID 32229586; settings: reference drugs; cited from earlier work
[19] = tested on: FEPS (K562/DNR); design: method as in PMID 32229586; settings: reference drugs; cited from earlier work
[20] = tested on: T. cruzi trypomastigotes; design: method as in PMID 23006639; settings: cited from earlier work
[21] = tested on: T. cruzi; design: method as in PMID 23006639; settings: cited from earlier work

COc1cccc(/C=C/C(=O)Nc2cc(OC)c(OC)c(OC)c2)c1 [Compound 2]
IC50 [1]: 11.6 µM
IC50 [2]: 3.1 µM

C=COc1cc(OC)c(C(=O)/C=C/c2ccncc2)c(OC=C)c1 [Compound 3]
IC50 [3]: 0.6 µM

O=C(/C=C/c1ccc2c(c1)OCO2)c1cccs1 [Compound 4]
IC50 [4]: 5.6 µM

COc1cc(-c2nc(-c3c(Cl)nc4sc(C)nn34)no2)cc(OC)c1OC [Compound 6]
IC50 [5]: 1.22 µM
IC50 [6]: 0.23 µM
IC50 [7]: 0.11 µM

Cc1ccc(-c2noc(CN3N=NC4C(=O)N(c5ccccc5)C(=O)C43)n2)cc1 (centres unmarked) [Compound 7]
IC50 [8]: 5.7 µM
IC50 [9]: 100 µM
IC50 [10]: 21.6 µM

N#CSCc1nc(-c2ccc(Cl)c(Cl)c2)no1 [Compound 8]
IC50 [11]: 70 µM
IC50 [12]: 2.3 µM
IC50 [13]: 5.2 µM
IC50 [14]: 3.9 µM

COc1cccc2c1C(=O)c1c(O)c3c(c(O)c1C2=O)C[C@@](O)(C(C)=O)C[C@@H]3O[C@H]1C[C@H](N)[C@H](O)[C@H](C)O1 [DNR, daunorubicin hydrochloride]
RR (relative resistance) FEPS [15]: 78.6
RR (relative resistance) Lucena-1 [16]: 37.3
EC50 [17]: 3.06 ± 0.87 µM
EC50 [18]: 0.082 ± 0.001 µM
EC50 [19]: 6.45 ± 1.27 µM

CC[C@]1(O)C[C@H]2CN(CCc3c([nH]c4ccccc34)[C@@](C(=O)OC)(c3cc4c(cc3OC)N(C=O)[C@H]3[C@@](O)(C(=O)OC)[C@H](OC(C)=O)[C@]5(CC)C=CCN6CC[C@]43[C@@H]65)C2)C1 [VCR, vincristine sulfate]
RR (relative resistance) FEPS [15]: 19.4
RR (relative resistance) Lucena-1 [16]: 15.7
EC50 [17]: 0.85 ± 0.12 µM
EC50 [18]: 0.054 ± 0.005 µM
EC50 [19]: 1.05 ± 0.07 µM

O=C(NN=Cc1ccc2c(c1)OCO2)c1nc(-c2ccc(Cl)cc2)no1 [conjugate 9]
IC50 [20]: 3.5 µM
effect on parasitemia in infected mice [21]: reduce parasitemia
